Molecular target: T1, mouse Tas2r105 (Mus musculus, UniProt Q9JKT4)
T1 construct: expressed in transfected cells; host or cells: HEK293T-Gα16gust44
T1 sequence (Q9JKT4 1-300): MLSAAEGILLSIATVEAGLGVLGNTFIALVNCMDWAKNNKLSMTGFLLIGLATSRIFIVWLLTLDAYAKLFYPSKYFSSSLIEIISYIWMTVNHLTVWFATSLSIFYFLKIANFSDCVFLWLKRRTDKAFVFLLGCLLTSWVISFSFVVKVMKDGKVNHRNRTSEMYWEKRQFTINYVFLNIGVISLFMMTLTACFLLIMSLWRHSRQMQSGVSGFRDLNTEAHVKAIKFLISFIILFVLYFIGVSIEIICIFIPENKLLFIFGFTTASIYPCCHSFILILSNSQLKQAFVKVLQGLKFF
Experiment: Calcium imaging assay (FLIPR), HEK293T-Gα16gust44 cells transfected with mouse Tas2r105
Assay type: cell-based

Structure (SMILES): C[C@H](CCC(=O)O)[C@H]1CC[C@H]2[C@@H]3CC[C@@H]4C[C@H](O)CC[C@]4(C)[C@H]3CC[C@]12C [Lithocholic Acid, lithocholic acid]
- RLU (Time 0 s): 0 RLU
- RLU (Time 2 s): -19.9183 RLU
- RLU (Time 4 s): 19.2865 RLU
- RLU (Time 6 s): -6.64 RLU
- RLU (Time 8 s): 9.805 RLU
- RLU (Time 12 s): 17.7969 RLU
- RLU (Time 14 s): 8.271 RLU
- RLU (Time 16 s): -2.182 RLU
- RLU (Time 18 s): 5.571 RLU
- RLU (Time 18.781 s): 8.9 RLU
- RLU (Time 20.781 s): -20.4639 RLU
- RLU (Time 22.781 s): -20.313 RLU
- RLU (Time 24.781 s): 13.8358 RLU
- RLU (Time 26.781 s): 13.4767 RLU
- RLU (Time 28.781 s): 5.266 RLU
- RLU (Time 30.781 s): -9.837 RLU
- RLU (Time 32.781 s): 8.574 RLU
- RLU (Time 34.781 s): 27.1912 RLU
- RLU (Time 36.781 s): 18.0239 RLU
- RLU (Time 38.781 s): 6.659 RLU
- RLU (Time 40.781 s): 53.7499 RLU
- RLU (Time 42.781 s): 49.1517 RLU
- RLU (Time 44.781 s): 47.3635 RLU
- RLU (Time 46.781 s): 50.4831 RLU
- RLU (Time 48.781 s): 74.4289 RLU
- RLU (Time 50.781 s): 93.6056 RLU
- RLU (Time 52.781 s): 63.4969 RLU
- RLU (Time 54.781 s): 82.9174 RLU
- RLU (Time 56.781 s): 91.8724 RLU
- RLU (Time 58.781 s): 82.9428 RLU
- RLU (Time 60.781 s): 110.605 RLU
- RLU (Time 62.781 s): 104.538 RLU
- RLU (Time 64.781 s): 112.529 RLU
- RLU (Time 66.781 s): 137.104 RLU
- RLU (Time 68.781 s): 132.36 RLU
- RLU (Time 70.781 s): 132.904 RLU
- RLU (Time 72.781 s): 132.041 RLU
- RLU (Time 74.781 s): 144.653 RLU
- RLU (Time 76.781 s): 172.509 RLU
- RLU (Time 78.781 s): 142.279 RLU
- RLU (Time 80.781 s): 151.243 RLU
- RLU (Time 82.781 s): 167.63 RLU
- RLU (Time 84.781 s): 195.966 RLU
- RLU (Time 86.781 s): 203.204 RLU
- RLU (Time 88.781 s): 204.712 RLU
- RLU (Time 90.781 s): 215.59 RLU
- RLU (Time 92.781 s): 209.022 RLU
- RLU (Time 94.781 s): 228.864 RLU
- RLU (Time 96.781 s): 184.288 RLU
- RLU (Time 98.781 s): 227.541 RLU
- RLU (Time 100.781 s): 248.863 RLU
- RLU (Time 102.781 s): 222.595 RLU
- RLU (Time 104.781 s): 217.502 RLU
- RLU (Time 106.781 s): 225.971 RLU
- RLU (Time 108.781 s): 244.356 RLU
- RLU (Time 110.781 s): 261.979 RLU
- RLU (Time 112.781 s): 241.216 RLU
- RLU (Time 114.781 s): 243.367 RLU
- RLU (Time 116.781 s): 246.887 RLU
- RLU (Time 118.781 s): 257.566 RLU
- RLU (Time 120.781 s): 260.092 RLU
- RLU (Time 122.781 s): 284.505 RLU
- RLU (Time 124.781 s): 270.165 RLU
- RLU (Time 126.781 s): 278.83 RLU
- RLU (Time 128.781 s): 309.382 RLU
- RLU (Time 130.781 s): 309.382 RLU
- RLU (Time 132.781 s): 310.252 RLU
- RLU (Time 134.781 s): 282.326 RLU
- RLU (Time 136.781 s): 279.582 RLU
- RLU (Time 137.562 s): 296.261 RLU
- RLU (Time 143.562 s): 310.291 RLU
- RLU (Time 149.562 s): 291.585 RLU
- RLU (Time 155.562 s): 301.792 RLU
- RLU (Time 161.562 s): 299.079 RLU
- RLU (Time 167.562 s): 303.398 RLU
- RLU (Time 173.562 s): 315.378 RLU
- RLU (Time 179.562 s): 314.187 RLU
- RLU (Time 185.562 s): 308.746 RLU
- RLU (Time 191.562 s): 287.017 RLU
- RLU (Time 197.562 s): 315.242 RLU
- RLU (Time 203.562 s): 299.639 RLU
- RLU (Time 209.562 s): 295.067 RLU
- RLU (Time 215.562 s): 316.647 RLU
- RLU (Time 221.562 s): 272.857 RLU
- RLU (Time 227.562 s): 314.132 RLU
- RLU (Time 233.562 s): 269.771 RLU
- RLU (Time 239.562 s): 270.901 RLU
- RLU (Time 245.562 s): 241.175 RLU
- RLU (Time 293.562 s): 236.399 RLU
- RLU (Time 299.562 s): 209.696 RLU
- RLU (Time 305.562 s): 212.529 RLU
- RLU (Time 311.562 s): 180.625 RLU
- RLU (Time 317.562 s): 178.726 RLU
- RLU (Time 323.562 s): 162.84 RLU
- RLU (Time 329.562 s): 185.237 RLU
- RLU (Time 335.562 s): 178.412 RLU
- RLU (Time 341.562 s): 163.583 RLU
- RLU (Time 347.562 s): 148.887 RLU
- RLU (Time 353.562 s): 153.613 RLU
- RLU (Time 359.562 s): 155.912 RLU
- Activation threshold concentration Tas2r105 (p < 0.01 vs empty vector): 3 µM

Structure (SMILES): C[C@H](CCC(=O)NCCS(=O)(=O)O)[C@H]1CC[C@H]2[C@@H]3[C@H](O)C[C@@H]4C[C@H](O)CC[C@]4(C)[C@H]3C[C@H](O)[C@]12C [Taurocholic Acid, taurocholic acid]
- Receptor response Tas2r105 (screening): lack of taurocholic acid responsiveness

Source: publication PMC10247784, “Physiological activation of human and mouse bitter taste receptors by bile acids” (Communications Biology, 2023)
